Data on one molecule can be found in patent US20150265630A1, “6-Substituted Estradiol Derivatives for the Treatment of Alzheimer's Disease” (Endece LLC, priority 2014, published 2015).

Molecules are shown by their SMILES.

What all share (assay type): cell-based
The subject of test [1] is Lipoprotein Lipase mRNA (LPL). Description: Expression profiling (Agilent whole human genome microarray), LPL mRNA in human tumor cell lines. Conditions: for Gene expression value, Lipoprotein Lipase mRNA (LPL), treated vs untreated: 50 μM, 24 hours. As for the experimental part: (§1) The study includes three human tumor cell lines: A549, Panc-1, and SK-OV-3. The lines are each grown in two flasks cultured to roughly 40% confluence. One of the flasks is treated by addition of compound to the culture media at a various concentrations, i.e. 10 μM, 20 μM 50 μM, or 100 μM. The other, mock treated, flask is treated only with the vehicle used to solubilize and deliver the drug. RNA extracted from the pairs of treated and untreated samples is subjected to microarray analysis on Agilent Whole Human Genome Microarrays (G4112F). Each analysis reports the difference in abundance of messenger RNAs for each of the 41,000 specific mRNA detectors on the array. This direct comparison of the treated versus untreated samples for each cell line provides extremely sensitive detection of changes in mRNA abundance resulting from the drug treatment. As each cell line comparison is self-normalized, the results can be compared across the samples with high confidence.
(§2) Three human tumor cell lines, A549, Panc-1, and SK-OV-3, are each grown in two flasks cultured to roughly 40% confluence. One of the flasks is treated by addition of compound to the culture media at concentrations of 10 μM, 50 μM and 100 μM. The other, mock treated, flask is treated only with the vehicle used to solubilize and deliver the drug. All flasks are cultured for a further 24 hours, and then the cells are scraped free and washed in ice-cold PBS, then collected by centrifugation. The harvested cells are immediately frozen, and stored at −80° C. or colder.
(§3) Total RNA is prepared from the frozen tissue samples using Trizol-based cell lysis followed by 65° C. hot phenol extraction and RNeasy chromatography purification. The purified RNA samples are analyzed spectrophotometrically. The concentration of RNA is determined by measuring the absorbance at 260 nm (A260). Given an absorbance of 1 unit at 260 nm corresponds to […] of RNA per ml when measured at pH 11.
(§4) All RNAs are labeled using 1 microgram of RNA as input to an Agilent Low Input Labeling reaction.
(§5) Test RNA is labeled with Cy5 (650 nm emitter) and reference RNA is labeled with Cy3 (550 nm emitter) nucleotides. Labeling, hybridizations and subsequent washings are carried out on Agilent H1Av2 human expression chips. The resulting hybridized chips are scanned on an Agilent microarray scanner, and intensity information for each detector spot is extracted from the scanned image using Agilent feature extraction software. […]
(§6) After the ratios have been calculated for the normalized data, the various control and duplicate samples are analyzed to build a model of how reproducible the results are, and how this reproducibility is varies depending on signal strength and noise. […]

The subject of test [2] is Apolipoprotein C2 (ApoC2). Description: Expression profiling (Agilent whole human genome microarray), ApoC2 mRNA in human tumor cell lines. Conditions: for Gene expression value, Apolipoprotein C2 (ApoC2), treated vs untreated: 50 μM, 24 hours. As to the method:
as §1, §2, §3, §4, §5, §6

The subject of test [3] is Apolipoprotein C3 (ApoC3). Description: Expression profiling (Agilent whole human genome microarray), ApoC3 mRNA in human tumor cell lines. The note with it: for Gene expression value, Apolipoprotein C3 (ApoC3), treated vs untreated: 50 μM, 24 hours. As for the experimental part:
as §1, §2, §3, §4, §5, §6

Where [4] appears, read: human tumor cell lines SKOV-3, A549 and Panc-1, summary of Table 1.

On to `COCCCCCC[C@@H]1C[C@@H]2[C@H](CC[C@]3(C)C(O)CC[C@@H]23)c2ccc(O)cc21` (stereo partly drawn) [Compound 21, (6R,8R,9S,13S,14S)-6-(6-methoxyhexyl)-13-methyl-7,8,9,11,12,13,14,15,16,17-decahydro-6H-cyclopenta[a]phenanthrene-3,17-diol], for which the “Gene expression value, Lipoprotein Lipase mRNA (LPL), treated vs untreated” value in test [1] (A549 cells, p = 0.0018) was determined as 2.95 log2; in test [1] (Panc-1 cells) it was 3.90 log2; in test [1] (SKOV-3 cells, p = 0.008), 2.77 log2. In test [1] (setting [4]), the “Regulation of the LPL gene (in words)” value is reported as “up-regulate”. For the same molecule, the “Gene expression value, Apolipoprotein C2 (ApoC2), treated vs untreated” value worked out at 7.21 log2 in test [2] (A549 cells), 6.91 log2 in test [2] (Panc-1 cells) and 3.89 log2 in test [2] (SKOV-3 cells). The “Regulation of the ApoC2 gene (in words)” value in test [2] (setting [4]) is “up-regulate”. For the same molecule, the “Gene expression value, Apolipoprotein C3 (ApoC3), treated vs untreated” value in test [3] (A549 cells), in test [3] (Panc-1 cells) and in test [3] (SKOV-3 cells) was 0 log2 in each case. For the same molecule, the “Regulation of the ApoC3 gene (in words)” value in test [3] (setting [4]) is “but not the ApoC3 gene”.
